From ChEMBL document CHEMBL1122842, “Beta-adrenoceptor activity of the stereoisomers of the bufuralol alcohol and ketone metabolites” (J Med Chem, 1985)

Each molecule was assayed against Beta-1 adrenergic receptor (Rattus norvegicus) (UniProt P18090). Settings: Heart.
Chain of Beta-1 adrenergic receptor (Rattus norvegicus) (P18090 whole entry, looked up): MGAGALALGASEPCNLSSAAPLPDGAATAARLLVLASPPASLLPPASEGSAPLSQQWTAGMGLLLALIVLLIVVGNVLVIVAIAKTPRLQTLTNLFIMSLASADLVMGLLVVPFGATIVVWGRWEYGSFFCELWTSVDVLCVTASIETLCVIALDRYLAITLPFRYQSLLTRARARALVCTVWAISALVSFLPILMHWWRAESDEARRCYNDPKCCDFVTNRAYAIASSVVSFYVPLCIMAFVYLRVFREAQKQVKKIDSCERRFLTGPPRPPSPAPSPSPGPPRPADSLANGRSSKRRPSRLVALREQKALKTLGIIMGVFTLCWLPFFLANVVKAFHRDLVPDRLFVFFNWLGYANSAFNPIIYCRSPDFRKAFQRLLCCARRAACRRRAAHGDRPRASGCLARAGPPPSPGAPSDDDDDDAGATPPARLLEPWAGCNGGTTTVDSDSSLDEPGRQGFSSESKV
Description: Beta-1 adrenergic receptor agonist activity as increased heart rate by 30 beats/min in rats
In the case of `CC(=O)c1cccc2cc([C@@H](O)CNC(C)(C)C)oc12`, the ED30 is reported as 0.0006 mg/kg.
`CC(=O)c1cccc2cc([C@H](O)CNC(C)(C)C)oc12` showed an ED30 of 0.032 mg/kg.
`CCc1cccc2cc([C@@H](O)CNC(C)(C)C)oc12` showed an ED30 of 0.053 mg/kg.
Molecule `CCc1cccc2cc([C@H](O)CNC(C)(C)C)oc12` has an ED30 of over 1 mg/kg.
With `CC(O)c1cccc2cc([C@@H](O)CNC(C)(C)C)oc12` (stereo in doubt; form 1) the ED30 was 0.019 mg/kg.
Work on `CC(O)c1cccc2cc([C@H](O)CNC(C)(C)C)oc12` (stereo in doubt; form 1) yielded an ED30 of over 1 mg/kg.
Molecule `CC(O)c1cccc2cc([C@@H](O)CNC(C)(C)C)oc12` (stereo in doubt; form 2) has an ED30 of 0.0007 mg/kg.
`CC(O)c1cccc2cc([C@H](O)CNC(C)(C)C)oc12` (stereo in doubt; form 2) showed an ED30 of 0.305 mg/kg.
